Results on one compound are retold here after patent publication US20160015786A1, “MOBILIZING AGENTS AND USES THEREFOR” (MATER MEDICAL RESEARCH INSTITUTE LIMITED, priority 2013, published 2016).

One test has as its system HIF-1α protein. Put plainly: Western blot of bone marrow cell lysates for HIF-1α stabilization in treated mice. The test is classed as in vivo, C57Bl/6 mice. The following applies: FIG. 1A. From the text:
FIGS. 1A, 1B, 1C, and 1D are graphical representations showing the effect of Compound X and G-CSF on HIF-1α protein and CFC mobilization. (1A) Western blot analysis of bone marrow (BM) cell lysates from mice treated with saline (Saline), with Compound X for 3 days (X3), with G-CSF for 2 days (G2) or with both Compound X and G-CSF (G2X3) for presence of HIF-1α and β-actin. Each lane represents a different mouse. […] (1D) Time-course numbers of CFC per mL blood or per spleen for mice treated with Plerixafor with or without Compound X. Mice were treated with Plerixafor for 1 hour (P1) together with Compound X for 1, 2, 3 or 4 days (P1X1-P1X4). Data are mean±SD of 6 mice per condition. * p<0.05; ** p<0.01; *** p<0.001.
To evaluate whether pharmacological stabilization of HIF-1α protein would enhance HSC mobilization in response to G-CSF, C57Bl/6 mice were treated with recombinant human G-CSF (rhuG-CSF) twice daily for 1-3 days together with a PHD inhibitor, Compound X, daily for 3 days. […] Mobilization of colony-forming cells (CFCs) to the blood and spleen were measured (FIG. 1B). […] To assess the optimum duration of Compound X treatment, Compound X was administered for 1-4 days and G-CSF for the last 2 days before tissue sampling (FIG. 1C).
All procedures were approved by the animal experimentation ethics committee of the University of Queensland. […]
(In general: Immunoblotting shows a protein as a band on a membrane.)

In test [1] the test system is competitive repopulating HSC. Description: Long-term competitive repopulation assay of mobilized blood. In kind it is in vivo, C57BL/6 mice. On the procedure:
FIGS. 3A and 3B are graphical representations showing that Compound X synergizes with G-CSF and Plerixafor to enhance mobilization of competitive repopulating HSCs. CD45.2^+ mice were mobilized with G-CSF for 2 or 4 days with G-CSF alone (filled circles), with G-CSF in combination with Plerixafor for 1 hr (filled triangles), with Compound X for 3 days (filled squares) or with both Plerixafor, 1 hr, and Compound X, 3 days (filled inverted triangles). Blood (20 μL) was transplanted in lethally irradiated recipients together with 200,000 competitive BM cells from CD45.1^+ mice. Proportion of blood CD45.2+ leukocytes at 16 weeks post-transplantation and number of repopulating units per mL of mobilized blood calculated from donor chimerism at 16 weeks post-transplantation from (3A) 2 days treatment with G-CSF and (3B) 4 days treatment with G-CSF. Each dot is a result from one recipient mouse, bars are average. *: p<0.05; ** 0.001<p<0.01; *** p<0.001.
This synergistic increase in HSC mobilization was further confirmed in long-term competitive repopulation assays following transplantation of 20 μL mobilized blood in competition with 2×10^5 BM cells from congenic donors. […] The number of mobilized long-term competitive repopulating HSC (measured 16 weeks post-transplant) doubled after treatment with 2 days G-CSF+1 h Plerixafor+3 days Compound X (G2P1X3) compared to G-CSF+Plerixafor (G2P1, p<0.05; FIG. 3A). […] The addition of Compound X to G-CSF (G4X3) increased 6-fold the number of mobilized repopulating units compared to G-CSF (G4) alone (P<0.001; FIG. 3B). The combination of Compound X with G-CSF and Plerixafor (G4P1X3) increased mobilization of repopulating units 3-fold compared to G-CSF+Plerixafor (G4P1) alone (P<0.001; FIG. 3B).
The content of mobilized blood samples in competitive repopulating HSC was determined in competitive repopulation assays as previously described (12,17). The day prior to blood harvest, recipient congenic B6.SJL CD45.1^+ female mice were lethally irradiated with 11.0Gy in two split doses 4 hours apart. 50 μL blood samples from 6 mobilized CD45.2^+ C57BL/6 donor mice were pooled within each treatment group and 20 μL blood aliquots were taken from this pool and mixed with 200,000 competitive whole BM cells from untreated B6.SJL CD45.1^+ in a total volume of 200 μL saline, and injected retro-orbitally into each lethally irradiated recipient. Recipients were maintained with antibiotics for the first 3 weeks post-transplant and tail bled 8, 12 and 16 weeks post-transplant to determine CD45.2 (test donor blood) versus CD45.1 (competitive whole BM cells) chimerism in myeloid, B and T lineages by flow cytometry using CD45.1-PE, CD45.2-allophycocyanin (APC), CD3-FITC, B220-allophycocyanin (APC)-cyanin (CY) 7, CD11b-PECY7, Ly6G-Pacific Blue. Content in repopulating units (RU) was calculated as previously described (18-19).

`O=C(O)CNC(=O)c1ncc2cc(Sc3ccccc3)ccc2c1O` [Compound X, [(4-Hydroxy-7-phenylsulfanyl-isoquinoline-3-carbonyl)-amino]-acetic acid]: the “stabilization of HIF-1α protein in bone marrow leukocytes” value in the test with HIF-1α protein (Compound X daily for 3 days) was “stabilization of HIF-1α protein was demonstrated”. Besides, in the test on HIF-1α protein (Compound X in combination with G-CSF), the “stabilization of HIF-1α protein compared to G-CSF alone” value is listed as “significantly increased”. Besides, in test [1] (16 weeks post-transplant, G2P1X3 vs G2P1, p<0.05, FIG. 3A), the “number of mobilized long-term competitive repopulating HSC versus G-CSF+Plerixafor” value is recorded as “doubled”. In addition, the “competitive repopulating HSC mobilized (CD45.2/CD45.1 chimerism) versus G-CSF+Plerixafor” value in test [1] (2 days G-CSF+Plerixafor+Compound X (G2P1X3) vs G2P1, p<0.01) amounted to 6 fold. The “number of long-term repopulating HSC per mL of blood” value in test [1] (Compound X in combination with G-CSF and Plerixafor (discussion)) is reported as “tripled”. In test [1] (G4P1X3 vs G4P1, P<0.001, FIG. 3B), the “increase in mobilization of repopulating units versus G-CSF+Plerixafor” value is 3 fold. Besides, in test [1] (G-CSF 4 days + Compound X (G4X3) vs G4, P<0.001, FIG. 3B), the “increase in number of mobilized repopulating units versus G-CSF alone” value is reported as 6 fold.
